What was measured:
Assay type in all cases: in vivo
Musca domestica = test: Test Example 3: treated filter paper with sucrose bait, Musca domestica; conditions: 500 ppm, 0.7 ml on filter paper; ten female Musca domestica imagoes; after 24 hours; read-out: rate of dead pests
Method: (§1) The formulation obtained according to Formulation Example 5 using the compound of the present invention (2), (3), (4), (6), (7), (8), (11), (12), (13), (15), (16), (19), (20), (21), (22), (28), (29), (30), (31), (32), (33), (34), (36), (37), (38) and (39) respectively, was diluted with water so that the active ingredient concentration came to 500 ppm to prepare a pesticidal solution for test.
(§2) On the bottom of a polyethylene cup having a diameter of 5.5 cm, a filter paper having the same diameter was laid, and 0.7 ml of the above pesticidal solution for test was added dropwise on the filter paper, followed by putting 30 mg of sucrose on it uniformly as a bait. Ten female Musca domestica imagoes were set free in the polyethylene cup and covered it with a lid. After 24 hours, the number of surviving and dead Musca domestica was examined and the rate of dead pests was calculated.

Blattella germanica = test: Test Example 4: treated filter paper with sucrose bait, Blattella germanica; conditions: 144 h; 500 ppm, 0.7 ml on filter paper; two male Blattella germanica imagoes; after 6 days; read-out: rate of dead pests
Method: as §1, with “(8), (9),” for “(8),”, “(16), (18),” for “(16),”, “(22), (27),” for “(22),”, “(34), (35),” for “(34),”, “(38), (43)” for “(38)”, “[…]” for “(39)”
as §2, with “Two male Blattella germanica” for “Ten female Musca domestica”, “6 days,” for “24 hours,”, “Blattella germanica” for “Musca domestica”

Culex pipiens pallens = test: Test Example 5: larvae in treated water, Culex pipiens pallens; conditions: 24 h; active ingredient concentration 3.5 ppm in water; twenty last-instar larvae of Culex pipiens pallens; after one day; read-out: rate of dead pests
Method: The formulation obtained according to Formulation Example 5 using the compound of the present invention (1), (2), (3), (4), (5), (6), (7), (8), (9), (10), (11), (12), (13), (14), (15), (16), (17), (18), (19), (20), (21), (22), (23), (25), (27), (28), (29), […], (31), (32), (33), (34), (35), (36), (37), (38), (39), (41), (44), (45), (46), (47) and (48) respectively, was diluted with water so that the active ingredient concentration came to 500 ppm to prepare a pesticidal solution for test.
0.7 ml of above pesticidal solution for test was added to 100 ml of ion exchanged water (active ingredient concentration: 3.5 ppm). Twenty last-instar larvae of Culex pipiens pallens were set free in the solution. After one day, the number of surviving and dead Culex pipiens pallens was examined and the rate of dead pests was calculated.

Row | SMILES | pest or weed control at 500 ppm (Musca domestica) | pest or weed control at 500 ppm (Blattella germanica) | pest or weed control at 3.5 ppm (Culex pipiens pallens)
1 | CC(C)(C)c1nn(CC(C#N)(C#N)CCC(F)(F)F)cc1Br [compound of the present invention (12), [(4-bromo-3-t-butyl-1H-pyrazole-1-yl)methyl](3,3,3-trifluoropropyl) malononitrile] | ≥ 90% | 100% | ≥ 95%
2 | CC(C)(C)c1nn(CC(C#N)(C#N)CCC(F)(F)F)cc1Cl [compound of the present invention (13), [(4-chloro-3-t-butyl-1H-pyrazole-1-yl)methyl](3,3,3-trifluoropropyl) malononitrile] | ≥ 90% | 100% | ≥ 95%
3 | N#CC(C#N)(CCC(F)(F)F)Cn1cc(Br)c(C(F)(F)F)n1 [compound of the present invention (15), [(4-bromo-3-trifluoromethyl-1H-pyrazole-1-yl)methyl](3,3,3-trifluoropropyl) malononitrile] | ≥ 90% | 100% | ≥ 95%
4 | C=CCC(C#N)(C#N)Cn1cc(Br)c(C(F)(F)F)n1 [compound of the present invention (16)] | ≥ 90% | 100% | ≥ 95%
5 | N#CC(C#N)(CCC(F)(F)F)Cn1cc(Cl)cn1 [compound of the present invention (19), [(4-chloro-1H-pyrazole-1-yl)methyl](3,3,3-trifluoropropyl) malononitrile] | ≥ 90% | 100% | ≥ 95%
6 | C=CCC(C#N)(C#N)Cn1cc(Cl)cn1 [compound of the present invention (20), allyl [(4-chloro-1H-pyrazole-1-yl)methyl]malononitrile] | ≥ 90% | 100% | ≥ 95%
7 | N#CC(C#N)(CCC(F)(F)F)Cn1cc(Br)cn1 [compound of the present invention (21), [(4-bromo-1H-pyrazole-1-yl)methyl](3,3,3-trifluoropropyl) malononitrile] | ≥ 90% | 100% | ≥ 95%
8 | N#CC(C#N)(CCC(F)(F)F)Cn1cc(C(F)(F)F)cn1 [compound of the present invention (22), {[4-(trifluoromethyl)-1H-pyrazole-1-yl]methyl}(3,3,3-trifluoropropyl) malononitrile] | ≥ 90% | 100% | ≥ 95%
9 | CC(C)c1ncn(CC(C#N)(C#N)CCC(F)(F)F)n1 [compound of the present invention (28), [(3-i-propyl-1H-1,2,4-triazole-1-yl)methyl](3,3,3-trifluoropropyl) malononitrile] | ≥ 90% | 100% | ≥ 95%
10 | CC(C)(C)c1ncn(CC(C#N)(C#N)CCC(F)(F)F)n1 [compound of the present invention (29), [(3-t-butyl-1H-1,2,4-triazole-1-yl)methyl](3,3,3-trifluoropropyl) malononitrile] | ≥ 90% | 100% | ≥ 95%
11 | C=CCC(C#N)(C#N)Cn1cnc(C(C)(C)C)n1 [compound of the present invention (31), allyl [(3-t-butyl-1H-1,2,4-triazole-1-yl)methyl]malononitrile] | ≥ 90% | 100% | ≥ 95%
12 | CC(C)(C)c1nc(Br)n(CC(C#N)(C#N)CCC(F)(F)F)n1 [compound of the present invention (32), [(5-bromo-3-t-butyl-1H-1,2,4-triazole 1-yl)methyl](3,3,3-trifluoropropyl)malononitrile] | ≥ 90% | 100% | ≥ 95%

— US7541374B2, “Malononitrile compounds and use thereof” (Sumitomo Chemical Company, Limited, priority 2004, dated 2009)
